Measurements from patent US6838096B2, “Black soybean polysaccharides” (Taipei Veterans General Hospital, priority 2001, dated 2005).

Legend:
[1] = system: BALB/c mice; experiment: Myelopoietic activity in 5-FU-treated BALB/c mice with or without CT26 tumor implantation; format: in vivo; conditions: 5-FU 150 mg/kg i.p.
Procedure: BALB/c mice (6-10 weeks old, 20±5 g) were obtained and kept in specific pathogen-free conditions with a controlled temperature and humidity, under a 12-h light/dark cycle, and given free access to food and water. All experiments were performed in accordance with the guidelines provided in the NIH Guide for the Care and Use of Laboratory Animals (DHHS publication No. NIH 85-23, revised 1996). CT26 murine colon adenocarcinoma and BALB/c syngenic were maintained in RPMI 1640 medium (Life technology, Grand Island, N.Y.) supplemented with 10% heat-inactivated FCS (HyClone, Logan, Utah) and 2 mM L-glutamine (Sigma, St. Louis, Mo.), and cultured at 37° C. in a humidified atmosphere containing 5% CO2. These cells were subcutaneously implanted into left flank of BALB/c mice.
For non-tumor implanted experiments, 5-FU (150 mg/kg body weight) was intraperitoneally (i.p.) injected into BALB/c mice on day 0, and PSBS (100 or 400 mg/kg body weight) was given by oral or interperitoneal administration daily once for 5 consecutive days 6 h after 5-FU injection. Mice in control group received normal saline at the same time. While in tumor-implanted model, 1×10^6 CT26 tumor cells in PBS per mouse was s.c. injected in the left flank of mice. […]

[2] = system: 5-FU-treated mice

number of leukocytes [1]: significantly reduced | CFU-GM colony numbers ([2]; 5-FU alone, single dose 150 mg/kg i.p., day 11): 41±5 colonies | myelosuppression ([2]; mouse, in vivo, ip, 150 mg/kg): apparent myelosuppression | number of leukocytes ([2]; mouse, in vivo, ip, 150 mg/kg): significantly decreased
Compound: O=c1[nH]cc(F)c(=O)[nH]1 [5-FU, 5-fluorouracil]
